Measured values from publication PMC10860121 (ACS infectious diseases, 2023).
Like-named read-outs stand apart in the source and are kept apart here.

Tests used:
[1] = test system: Chloroquine-sensitive NF54 P. falciparum isolate; assay: In vitro antiplasmodial activity, NF54; type: cell-based, Plasmodium falciparum; details: for IC50: Plasmodium falciparum
P. falciparum RF12 = assay: In vitro antiplasmodial activity, RF12, 72 h [3H]hypoxanthine incorporation; type: cell-based; details: Plasmodium falciparum, read-out: P. falciparum IC50 RF12
P. falciparum 7G8 = assay: In vitro antiplasmodial activity, 7G8, 72 h [3H]hypoxanthine incorporation; type: cell-based; details: Plasmodium falciparum, 7G8, read-out: P. falciparum IC50 7G8
P. falciparum K1 = assay: In vitro antiplasmodial activity, K1, 72 h [3H]hypoxanthine incorporation; type: cell-based; details: Plasmodium falciparum, K1, read-out: P. falciparum IC50 K1
P. falciparum Dd2 = assay: In vitro antiplasmodial activity, Dd2, 72 h [3H]hypoxanthine incorporation; type: cell-based; details: Plasmodium falciparum, DD2, read-out: P. falciparum IC50 Dd2
P. falciparum TM90C2B = type: cell-based; details: Plasmodium falciparum, read-out: P. falciparum IC50 TM90C2B
[2] = In vitro intrinsic clearance in mouse liver microsomes; type: in vitro ADME
[3] = In vitro intrinsic clearance in human liver microsomes; type: in vitro ADME; details: for microsomal CLint: human, liver microsomes, h CLint
[4] = Stability in 0.1 M PBS pH 7.4; type: physicochemical; details: 7 h incubation period
Chromatographic LogD7.4 = type: physicochemical; details: gradient HPLC, Phenomenex Synergi Hydro-RP column, pH 7.4
[5] = Stability in P. falciparum activity test medium; type: physicochemical; details: for half-life at 1 μM: P. falciparum in vitro activity test medium
[6] = In vivo pharmacokinetics in mice; parameters: species or system male Swiss outbred mice
[7] = test system: GFP MRA-865 strain of Plasmodium berghei; assay: In vivo antimalarial activity in P. berghei-infected mice; details: female NMRI mice, four 50 mg/kg daily oral doses; untreated control 52.3 ± 2.6%
[8] = NF54, read-out: P. falciparum IC50, NF54, mean from n ≥ 2

| IC50 [1, 8] | microsomal CLint [2] | microsomal CLint [3] | loss in 0.1 M PBS pH 7.4 [4] | chromatographic logD (Chromatographic LogD7.4) | Compound | IC50 (P. falciparum RF12) | IC50 (P. falciparum 7G8) | IC50 (P. falciparum K1) | IC50 (P. falciparum Dd2) | IC50 (P. falciparum TM90C2B) | half-life at 1 μM [5] | other results |
| --- | --- | --- | --- | --- | --- | --- | --- | --- | --- | --- | --- | --- |
| 41 nM | 910 µL/min/mg | 100 µL/min/mg |  | 2.6 | CCOC(=O)c1ccc2c(c1)C(=O)CCc1ccccc1C(=O)N2 [Compound 18, Ethyl 6,13-Dioxo-6,11,12,13-tetrahydro-5H-dibenzo-[b,g]azonine-2-carboxylate] | 11 ± 0.86 nM | 32 ± 9.9 nM | 30 ± 7.5 nM | 30 ± 7.2 nM | 1000 nM |  | IC50 ([1]; NF54, read-out: P. falciparum IC50 NF54, Mean ± SD, n ≥ 2, 72 h [3H]hypoxanthine incorporation assay): 41 ± 7.4 nM; fold more potent than 2 (antiplasmodial) ([1]; relative to compound 2): roughly 5 fold |
| 130 nM | 110 µL/min/mg | 11 µL/min/mg | < 5% | 2.1 | O=C1Nc2ccccc2C(=O)CCc2cc(F)ccc21 [Compound 32, 9-Fluoro-11,12-dihydro-5H-dibenzo[b,g]azonine-6,13-dione] |  |  |  |  |  | 25 h |  |

Second part, the molecule before the results:

| Compound | IC50 [1, 8] | microsomal CLint [2] | microsomal CLint [3] | loss in 0.1 M PBS pH 7.4 [4] | chromatographic logD (Chromatographic LogD7.4) | IC50 (P. falciparum RF12) | IC50 (P. falciparum 7G8) | IC50 (P. falciparum K1) | IC50 (P. falciparum Dd2) | IC50 (P. falciparum TM90C2B) | half-life at 1 μM [5] | other results |
| --- | --- | --- | --- | --- | --- | --- | --- | --- | --- | --- | --- | --- |
| CCN(CC)CCCC(C)Nc1ccnc2cc(Cl)ccc12 (stereo not shown) [Chloroquine, chloroquine] |  |  |  |  |  | 350 nM | 57 ± 0.9 nM | 270 ± 41 nM | 180 ± 21 nM | 160 ± 22 nM |  | IC50 ([1]; NF54, read-out: P. falciparum IC50 NF54): 9.1 ± 1.5 nM |
| O=C1Nc2ccccc2C(=O)CCc2ccccc21 [Compound 2, 11,12-dihydro-5H-dibenzo[b,g]azonine-6,13-dione] | 190 nM | 39 µL/min/mg | 20 to 40 µL/min/mg | < 5% | 1.9 |  |  |  |  |  |  | h CLint [3]: 20 μL/min/mg protein; Apparent degradation t1/2, In Vitro Assay Medium ([5]; 1 μM, 37 °C, 6 h incubation, parentheses 95% confidence interval): No loss detected over 6 h |
| O=C1Nc2cc(F)cc(F)c2C(=O)CCc2ccccc21 [Compound 28, 1,3-Difluoro-11,12-dihydro-5H-dibenzo[b,g]azonine-6,13-dione] | 7 nM | 58 µL/min/mg | 17 µL/min/mg |  | 2.5 |  |  |  |  |  | 4.7 h | clearance ([6]; male, Swiss outbred, mouse, plasma, iv): 147 mL/min/kg; Cmax ([6]; male, Swiss outbred, mouse, plasma, po): ~500 ng/mL; adverse reactions or compound-related side effects ([6]; mice, 24 h post-dose sampling period, IV and PO): No adverse reactions or compound-related side effects were observed; in vitro selectivity index ([1]; antiplasmodial selectivity, L6 cytotoxicity vs P. falciparum): > 10,000; parasitemia [7]: 49.0 ± 4.3% |
